Test results from patent EP0247900A1, “Topical methotrexate preparation for the treatment of hyperproliferative epithelial disease” (THE REGENTS OF THE UNIVERSITY OF CALIFORNIA, priority 1986, dated 1987).

What was measured:
[1] = test system: psoriasis; details: 0.1% and 0.5% MTX in vehicle with 2.5% C-10-methylsulfoxide, six patients, daily for nine days; cited from earlier work
[2] = prior-art topical MTX preparations, in vitro and in vivo; cited from earlier work
[3] = test system: epidermal DNA synthesis; experiment: In vivo epidermal labeling index (DNA synthesis) in the mini-pig model; design: species or system Mini-pigs; details: for Epidermal Labeling Index: applied daily for 7 days, mini-pig dorsal skin
Protocol: The formulations of Example III were tested for effect on in vivo DNA synthesis in the mini-pig model. Mini-pig skin closely resembles human skin and the effect of a drug on epidermal cell proliferation is a recognized test for the effectiveness of therapeutic protocols for hyperproliferative skin disease.
Mini-pigs were obtained from Charles River Laboratories, Inc. (Wilmington, MA). Drug preparations were applied to small areas of dorsal skin (ca 1 inch square) according to the selected application schedules. Six hours following the last drug application, tritiated thymidine was injected into the drug treatment sites for autoradiographic assessment of epidermal proliferation as measured by epidermal labeling index. Weinstein & and Van Scott, (1965) J. Invest. Derm. 44:413
A vehicle containing various concentrations of MTX was applied daily for 7 days. Tritiated deoxyuridine was injected into the treatment sites on day 7, as well as in untreated control area. DNA synthesis was measured as described in Example II.
Formulations were applied daily for 7 days. […] Autoradiographs were scored at 4 wk.

[4] = test system: psoriatic epidermal DNA synthesis; experiment: Intradermal administration of MTX; assay type: in vivo; details: administered intradermally, compared with systemic MTX
From the text: Thus, it has been discovered that MTX or its analogs can be administered topically in an effective manner to skin afflicted with a hyperproliferative epithelial disease avoiding, therefore, the serious side effects associated with systemic MTX administration.

[5] = In vitro percutaneous penetration of MTX in glass diffusion cells
Protocol: Methotrexate was obtained from Lederle Laboratories, Pearl River, NY. Methotrexate (3',5',7-^3H)sodium (250 mCi/mmol) was obtained from Amersham and prior to use was purified by chromatography on thin-layer cellulose plates in 0.006 M potassium phosphate buffer, pH 6.0. Vehicle N was obtained from the Neutrogena Corporation. Los Angeles, CA.
The percutaneous penetration of MTX was measured in glass diffusion cells as previously described. McCullough et al (1976) J Invest Derm 66:103-107. Excised human skin obtained from abdominoplasty was used for these studies. First, 0.5 ml containing 10 µCi methotrexate-^3H and cold methotrexate to give a final concentration of 2% in various vehicles was applied to the epidermal surface (0.2 ml/cm^2). A total of […] methotrexate was applied to each diffusion cell. The dermal reservoir contained phosphate buffered saline. Three diffusion cells were run for each vehicle. Diffusion cells were incubated with constant stirring at 28°C. Methotrexate penetration was followed at various time points up to 48 hr by liquid scintillation counting. The test solution was removed after the 48 hr incubation period, and the epidermal surface was rinsed three times with vehicle in which the drug being tested was dissolved. […] The epidermis was separated by heating the skin for 1 min on a hot plate at 60°C. MTX was extracted from the epidermis and dermis utilizing the techniques described by Werkheiser et al (1962) J Pharmacol Exp Ther 137:162-166, which specifically disassociates MTX from cellular bound proteins. The stratum corneum was removed by repeated stripping with cellophane tape until the skin glistened.
In vitro percutaneous penetration studies were carried out according to the methods of Example I with formulations of a topical gel containing about 3% Azone and various concentrations of MTX.
Employing the methods described in Example I, various vehicles containing 2% by weight of tritiated MTX were tested in vitro on human skin.
Additional studies with the mini-pig model, as described in Example IV, were conducted to test various carriers with different concentrations of MTX and Azone. Formulations were applied daily for 7 days. Three sites per treatment area were injected with ^3H-UdR. Autoradiographs were scored at 4 wk. Techniques as described in Examples I and II were employed to measure percutaneous penetration and DNA synthesis.
Various vehicle formulations were evaluated in vitro at various MTX concentrations for penetration of MTX into the epidermis. Penetration was evaluated as described in Example I. Unless otherwise noted, all vehicles were a gel formulation that contained 3% Azone.

[6] = test system: hairless mouse skin; experiment: Skin changes after topical MTX in normal and essential fatty acid deficient hairless mice; assay type: in vivo, HRS/J albino hairless mice; details: three daily applications of 2% MTX in Vehicle N, untreated abdominal skin not similarly affected
Protocol: (§1) HRS/J albino hairless mice, age 2-3 months, were used for these experiments. For induction of the […] fatty acid deficiency, 3-week-old animals were fed an essential fatty acid deficient diet (Teklad) for 60 days.
Topical MTX preparations at various concentrations or vehicle control in the amount of 0.05 ml were applied to the backskin area of 1.5 cm by 3 cm daily for 1 or 3 days. Six to ten mice were used for each treatment group. Tritiated deoxyuridine was utilized as a precursor for assaying the effects of methotrexate on the de novo pathway for epidermal DNA synthesis. The incorporation of tritiated deoxyuridine into DNA depends on the normal functioning of dihydrofolate reductase which is blocked by methotrexate. At selected time points after single or repeated topical MTX applications, mice were injected IP with tritiated deoxyuridine (50-100 uCi) for measurement of epidermal DNA synthesis in treated backskin to determine the local effect of MTX. DNA synthesis was simultaneously measured in untreated abdominal skin of Vehicle N and MTX-treated animals to determine systemic effects of MTX at a distant site. […] Results of epidermal DNA synthesis were calculated as counts/minute/ug of DNA. The effects of MTX treatment on DNA synthesis of the back and abdomen were expressed as percentage of the DNA synthesis of Vehicle N treated back skin and untreated abdomin in control animals. […]

[7] = test system: epidermal DNA synthesis; experiment: In vivo epidermal DNA synthesis (tritiated deoxyuridine incorporation) after topical MTX in hairless mice; design: species or system HRS/J albino hairless mice; details: for suppression of epidermal DNA synthesis in treated back skin: compared to Vehicle N treated control
From the text: Deoxyuridine (6-^3H) (25 Ci/mmol) was obtained from New England Nuclear. Other materials were obtained as described in Example I.
as §1
Six to ten mice were used for each treatment group. Tritiated deoxyuridine was utilized as a precursor for assaying the effects of methotrexate on the de novo pathway for epidermal DNA synthesis. The incorporation of tritiated deoxyuridine into DNA depends on the normal functioning of dihydrofolate reductase which is blocked by methotrexate. At selected time points after single or repeated topical MTX applications, mice were injected IP with tritiated deoxyuridine (50-100 uCi) for measurement of epidermal DNA synthesis in treated backskin to determine the local effect of MTX. DNA synthesis was simultaneously measured in untreated abdominal skin of Vehicle N and MTX-treated animals to determine systemic effects of MTX at a distant site. One hour after administration of isotope, animals were sacrificed by cervical dislocation, and treated backskin and untreated abdominal skin was obtained. Epidermis was removed after incubating the skin specimens for 1 hr at 37°C in 2 M sodium bromide. DNA was extracted and assayed using the technique described by Halprin et al (1979) J Invest Derm 73:359-363. Results of epidermal DNA synthesis were calculated as counts/minute/ug of DNA. The effects of MTX treatment on DNA synthesis of the back and abdomen were expressed as percentage of the DNA synthesis of Vehicle N treated back skin and untreated abdomin in control animals.

[8] = 0.1% Methotrexate in topical gel containing about 3% Azone
[9] = 0.5% Methotrexate in topical gel containing about 3% Azone
[10] = 1.0% Methotrexate in topical gel containing about 3% Azone

**Q.** What does the source list for `CN(Cc1cnc2nc(N)nc(N)c2n1)c1ccc(C(=O)N[C@@H](CCC(=O)O)C(=O)O)cc1` [MTX, Methotrexate]?
**A.** clinical improvement [1]: no significant improvement in any of the patients; percutaneous penetration of human skin [2]: negligible percutaneous penetration; Epidermal Labeling Index ([3]; 0.5% Methotrexate in gel with about 3% Azone): 0.0 ± 0.0%; labeling intensity (rate of DNA synthesis) ([3]; 0.5% and 1.0% MTX in Azone gel, daily for 7 days, compared to the vehicle control): slight decrease in labeling intensity; Epidermal Labeling Index ([3]; 1.0% Methotrexate in gel with about 3% Azone): 0.8 ± 1.4%; biochemical effects and biological actions [4]: same biochemical effects (inhibition of psoriatic epidermal DNA synthesis) and biological actions (mitotic inhibition and damaged cell production) as systemic MTX; Cumulative Penetration 48 hr [5, 8]: 0.6 ± 0.2 µg; Epidermal Content [5, 8]: 3.9 ± 0.3 µg; Cumulative Penetration 48 hr [5, 9]: 7.5 ± 1.4 µg; Epidermal Content [5, 9]: 24.1 ± 8.1 µg; Cumulative Penetration 48 hr [5, 10]: 18.7 ± 6.1 µg; Epidermal Content [5, 10]: 36.0 ± 11.7 µg; effect on epidermis of treated skin [6]: marked epidermal atrophy; effect on DNA synthesis in back skin and untreated abdominal skin ([7]; four daily applications of MTX in Vehicle N): total suppression of DNA synthesis; effect on DNA synthesis ([7]; single application of MTX in Vehicle N): ineffective; effect on DNA synthesis in treated skin ([7]; three daily applications of 1% MTX in Vehicle N, 6 hr after the last treatment): produced inhibition of DNA synthesis; systemic effect on DNA synthesis in untreated abdominal skin ([7]; three daily applications of 2% MTX in Vehicle N, at 54 hr (6 hr after the last treatment)): no significant (p < 0.001) systemic methotrexate effect; suppression of epidermal DNA synthesis in treated back skin ([7]; three daily applications of 2% MTX in Vehicle N, at 54 hr): 50%; local and systemic effect on DNA synthesis ([7]; three daily applications of 2% MTX in Vehicle N, at 72 hr, 24 hr after the last treatment): both local and systemic effects were obtained; suppression of epidermal DNA synthesis in treated back skin ([7]; three daily applications of 2% MTX in Vehicle N, at 72 hr): 75%; effect on DNA synthesis ([7]; three daily applications of MTX in Vehicle N at concentrations lower than 1%): no local or systemic effect; effect on epidermal DNA synthesis ([7]; topical MTX (0.5%) in N-decylmethylsulfoxide): no effect on epidermal DNA synthesis
